These results are taken from ChEMBL document CHEMBL5625199, “Discovery of triazole-bridged aryl adamantane analogs as an intriguing class of multifunctional agents for treatment of Alzheimer's disease” (Eur J Med Chem, 2023).

Data set [1] in a line: Antagonist activity at GluN1-1b/GluN2A (unknown origin) expressed in xenopus laevis oocytes assessed as inhibition of glycine/glutamate-induced channel current incubated for 20s measured at holding potential of -70 mV by two-electrode voltage clamp technique. The class given is cell-based. The note with it: Homo sapiens, Oocyte. (Two-electrode voltage clamp holds a large cell at a set potential and records current.)

A short description of data set [2]: Antagonist activity at GluN1-1b/GluN2D (unknown origin) expressed in xenopus laevis oocytes assessed as inhibition of glycine/glutamate-induced channel current incubated for 20s measured at holding potential of -70 mV by two-electrode voltage clamp technique. The class given is cell-based. The conditions noted are these: Homo sapiens, Oocyte.
A short description of data set [3]: Antagonist activity at GluN1-1a/GluN2A (unknown origin) expressed in xenopus laevis oocytes assessed as inhibition of glycine/glutamate-induced channel current incubated for 20s measured at holding potential of -70 mV by two-electrode voltage clamp technique. The class given is cell-based. The conditions noted are these: Homo sapiens, Oocyte.
The next data set can be described thus: in vitro. The conditions noted are these: PAMPA. For orientation: PAMPA measures passive passage across an artificial lipid membrane.
Data set [4] addresses T1, Acetylcholinesterase (Homo sapiens, UniProt P22303). Nature of the data set: Inhibition of AChE (unknown origin).
Data set [5] can be described thus: Antagonist activity at GluN1-1a/GluN2C (unknown origin) expressed in xenopus laevis oocytes assessed as inhibition of glycine/glutamate-induced channel current incubated for 20s measured at holding potential of -70 mV by two-electrode voltage clamp technique. The class given is cell-based. The note with it: Homo sapiens, Oocyte.
The subject of data set [6] is HEK-293T. Nature of the data set: Cytotoxicity against HEK293T cells assessed as reduction in cell viability at 0.3 to 100 uM measured after 44 hrs by WST-1 assay. The class given is toxicity, cell-based. The note with it: human, dose 0.3-100 µM. A general note: Formazan colour is commonly taken as a measure of viable cells.
A short description of data set [7]: Antagonist activity at GluN1-1b/GluN2C (unknown origin) expressed in xenopus laevis oocytes assessed as inhibition of glycine/glutamate-induced channel current incubated for 20s measured at holding potential of -70 mV by two-electrode voltage clamp technique. The class given is cell-based. The conditions noted are these: Homo sapiens, Oocyte.
Data set [8] in a line: Antagonist activity at GluN1-1b/GluN2B (unknown origin) expressed in xenopus laevis oocytes assessed as inhibition of glycine/glutamate-induced channel current incubated for 20s measured at holding potential of -70 mV by two-electrode voltage clamp technique. The class given is cell-based. The conditions noted are these: Homo sapiens, Oocyte.
A short description of data set [9]: Antagonist activity at GluN1-1a/GluN2D (unknown origin) expressed in xenopus laevis oocytes assessed as inhibition of glycine/glutamate-induced channel current incubated for 20s measured at holding potential of -70 mV by two-electrode voltage clamp technique. The class given is cell-based. The note with it: Homo sapiens, Oocyte.
A short description of data set [10]: Antagonist activity at GluN1-1a/GluN2B (unknown origin) expressed in xenopus laevis oocytes assessed as inhibition of glycine/glutamate-induced channel current incubated for 20s measured at holding potential of -70 mV by two-electrode voltage clamp technique. The note with it: Oocyte. The class given is cell-based, Homo sapiens.
In data set [11] the target is Amyloid-beta precursor protein (Homo sapiens) (UniProt P05067). Nature of the data set: Inhibition of AChE-induced Amyloid beta (1 to 42 residues) (unknown origin) aggregation at Abeta(1 to 42) to compound concentration ratio of 10:5 to 10:20 uM incubated for 48 hrs by ThT fluorescence method.
Amyloid-beta precursor protein (Homo sapiens), sequence (P05067 whole entry, the tested form may be a part): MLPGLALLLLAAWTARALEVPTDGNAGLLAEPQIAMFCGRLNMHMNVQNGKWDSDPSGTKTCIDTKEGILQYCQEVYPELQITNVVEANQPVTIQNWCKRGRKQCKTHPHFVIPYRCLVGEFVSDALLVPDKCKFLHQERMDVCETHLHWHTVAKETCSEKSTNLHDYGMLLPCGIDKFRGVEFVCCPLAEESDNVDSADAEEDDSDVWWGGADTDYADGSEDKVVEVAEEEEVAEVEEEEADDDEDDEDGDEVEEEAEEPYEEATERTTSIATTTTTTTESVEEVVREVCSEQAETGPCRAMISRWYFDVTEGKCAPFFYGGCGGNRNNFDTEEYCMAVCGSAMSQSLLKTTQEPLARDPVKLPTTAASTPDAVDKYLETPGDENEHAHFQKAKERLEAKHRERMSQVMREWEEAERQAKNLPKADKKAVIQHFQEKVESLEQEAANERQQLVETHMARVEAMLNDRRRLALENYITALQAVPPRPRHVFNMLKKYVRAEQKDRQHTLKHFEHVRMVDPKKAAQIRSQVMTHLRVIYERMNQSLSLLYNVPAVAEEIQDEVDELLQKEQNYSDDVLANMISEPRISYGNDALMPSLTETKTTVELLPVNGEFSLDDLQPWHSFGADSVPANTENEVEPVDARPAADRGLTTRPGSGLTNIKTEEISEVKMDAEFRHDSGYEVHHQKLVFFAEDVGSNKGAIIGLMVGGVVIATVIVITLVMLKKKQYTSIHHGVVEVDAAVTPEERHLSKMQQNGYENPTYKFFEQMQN
Data set [12] has as its target T2, Acetylcholinesterase (Electrophorus electricus, UniProt O42275). Nature of the data set: Non-competitive inhibition of electric eel AChE by Dixon plot analysis.
For data set [13], the target named is T3, Acetylcholinesterase (Rattus norvegicus) (UniProt P37136).
T3 sequence (whole entry): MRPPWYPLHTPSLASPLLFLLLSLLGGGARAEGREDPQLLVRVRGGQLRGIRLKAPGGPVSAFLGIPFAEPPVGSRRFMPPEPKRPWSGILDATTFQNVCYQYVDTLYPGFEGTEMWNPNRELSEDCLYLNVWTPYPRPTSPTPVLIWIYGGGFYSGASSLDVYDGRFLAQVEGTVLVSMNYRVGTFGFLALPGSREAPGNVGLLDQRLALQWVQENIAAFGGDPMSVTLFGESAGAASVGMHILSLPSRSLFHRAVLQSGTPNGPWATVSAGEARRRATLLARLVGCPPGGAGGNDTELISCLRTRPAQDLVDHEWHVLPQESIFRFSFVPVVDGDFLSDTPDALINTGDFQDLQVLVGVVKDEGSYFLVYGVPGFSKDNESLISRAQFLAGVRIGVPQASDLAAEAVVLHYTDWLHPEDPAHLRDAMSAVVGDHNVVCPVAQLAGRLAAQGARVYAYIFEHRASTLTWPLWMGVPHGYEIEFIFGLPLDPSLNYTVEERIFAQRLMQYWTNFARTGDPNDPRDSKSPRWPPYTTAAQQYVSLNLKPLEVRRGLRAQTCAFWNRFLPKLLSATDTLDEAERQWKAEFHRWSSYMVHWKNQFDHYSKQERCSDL
In words: Ex vivo inhibition of AChE activity in brain of scopalamine-induced amnesia Wistar rat model at 10 mg/kg, po administered for 7 days and on day 7 administered with scopolamine at 30 mins before drug administration. The class given is functional, organism-based. The conditions noted are these: time 7.0 day.

In data set [14] the test system is HEK-293T. Nature of the data set: Cytotoxicity against HEK293T cells assessed as reduction in cell viability at 100 uM measured after 44 hrs by WST-1 assay. The class given is toxicity, cell-based. The conditions noted are these: human.
The test system of another data set is SH-SY5Y. In words: Neuroprotective activity against human SH-SY5Y cells assessed as reduction of Abeta(1 to 42)-induced cytotoxicity upto 10 uM pretreated with Abeta42 for 24 hrs followed by incubation with compound for 72 hrs by MTT assay. The class given is functional, cell-based.
Data set [15] relates to Rattus norvegicus. In words: Antialzheimer activity against Abeta(1 to 42)-induced coginitive deficit Wistar rat model assessed as increase in time spent in the platform zone at 10 mg/kg, po administered for 7 days by Morris water maze test. The class given is functional, organism-based. The conditions noted are these: time 7.0 day.
In data set [16] the target is T3, Acetylcholinesterase (Rattus norvegicus). In words: Ex vivo inhibition of AChE activity in brain of scopalamine-induced amnesia Wistar rat model at 2.5 to 10 mg/kg, po administered for 7 days and on day 7 administered with scopolamine at 30 mins before drug administration. The class given is functional, organism-based. The conditions noted are these: dose 2.5-10 mg/kg, time 7.0 day.

In data set [17] the test system is Rattus norvegicus. Nature of the data set: Antialzheimer activity against scopalamine-induced amnesia Wistar rat model assessed as inhibition of cognition impairment by measuring increase in spontaneous alterations at 10 mg/kg, po administered for 7 days and on day 7 administered with scopolamine at 30 mins before drug administration by Y-maze test. The class given is functional, organism-based. The note with it: time 7.0 day.

For data set [18], the system named is Rattus norvegicus. Nature of the data set: Antialzheimer activity against Abeta(1 to 42)-induced coginitive deficit Wistar rat model assessed as increase in total number of platform crossings at 10 mg/kg, po administered for 7 days by Morris water maze test. The class given is functional, organism-based. The conditions noted are these: time 7.0 day.
Data set [19] has as its system HEK-293T. Nature of the data set: Cytotoxicity against HEK293T cells assessed as reduction in cell viability at 0.3 to 30 uM measured after 44 hrs by WST-1 assay. The class given is toxicity, cell-based. The conditions noted are these: human, dose 0.3-30 µM.
Data set [20] has as its target T2, Acetylcholinesterase. In words: Inhibition of electric eel AChE using acetylthiocholine iodide as substrate preincubated with enzyme for 10 mins followed by substrate addition and measured every 1 min for 20 mins by spectrophotometric analysis.
The nature of data set [21]: Selectivity index, ratio of IC50 for equine serum BuChE to IC50 for electric eel AChE.
The subject of data set [22] is Rattus norvegicus. Nature of the data set: Antialzheimer activity against scopalamine-induced amnesia Wistar rat model assessed as inhibition of cognition impairment by measuring increase in spontaneous alterations at 2.5 to 10 mg/kg, po administered for 7 days and on day 7 administered with scopolamine at 30 mins before drug administration by Y-maze test. The class given is functional, organism-based. The note with it: dose 2.5-10 mg/kg, time 7.0 day.

Data set [23] addresses T1, Acetylcholinesterase. In words: Inhibition of human AChE.
The target of data set [24] is Amyloid-beta precursor protein (Homo sapiens) (UniProt P05067). In words: Inhibition of self-induced Amyloid beta (1 to 42 residues) (unknown origin) aggregation at Abeta(1 to 42) to compound concentration ratio of 10:5 to 10:20 uM incubated for 48 hrs by ThT fluorescence method.
The next data set concerns the target Cholinesterase (Equus caballus, UniProt P81908). In words: Inhibition of equine serum BuChE using butyrylthiocholine iodide as substrate preincubated with enzyme for 10 mins followed by substrate addition and measured every 1 min for 20 mins by spectrophotometric analysis.
In data set [25] the target is Glutamate receptor ionotropic, NMDA 2A (Homo sapiens, UniProt Q05586+Q12879). Nature of the data set: Antagonist activity at GluN2A NMDA receptor (unknown origin).
Glutamate receptor ionotropic, NMDA 2A, sequence (Q12879 whole entry, one chain of several): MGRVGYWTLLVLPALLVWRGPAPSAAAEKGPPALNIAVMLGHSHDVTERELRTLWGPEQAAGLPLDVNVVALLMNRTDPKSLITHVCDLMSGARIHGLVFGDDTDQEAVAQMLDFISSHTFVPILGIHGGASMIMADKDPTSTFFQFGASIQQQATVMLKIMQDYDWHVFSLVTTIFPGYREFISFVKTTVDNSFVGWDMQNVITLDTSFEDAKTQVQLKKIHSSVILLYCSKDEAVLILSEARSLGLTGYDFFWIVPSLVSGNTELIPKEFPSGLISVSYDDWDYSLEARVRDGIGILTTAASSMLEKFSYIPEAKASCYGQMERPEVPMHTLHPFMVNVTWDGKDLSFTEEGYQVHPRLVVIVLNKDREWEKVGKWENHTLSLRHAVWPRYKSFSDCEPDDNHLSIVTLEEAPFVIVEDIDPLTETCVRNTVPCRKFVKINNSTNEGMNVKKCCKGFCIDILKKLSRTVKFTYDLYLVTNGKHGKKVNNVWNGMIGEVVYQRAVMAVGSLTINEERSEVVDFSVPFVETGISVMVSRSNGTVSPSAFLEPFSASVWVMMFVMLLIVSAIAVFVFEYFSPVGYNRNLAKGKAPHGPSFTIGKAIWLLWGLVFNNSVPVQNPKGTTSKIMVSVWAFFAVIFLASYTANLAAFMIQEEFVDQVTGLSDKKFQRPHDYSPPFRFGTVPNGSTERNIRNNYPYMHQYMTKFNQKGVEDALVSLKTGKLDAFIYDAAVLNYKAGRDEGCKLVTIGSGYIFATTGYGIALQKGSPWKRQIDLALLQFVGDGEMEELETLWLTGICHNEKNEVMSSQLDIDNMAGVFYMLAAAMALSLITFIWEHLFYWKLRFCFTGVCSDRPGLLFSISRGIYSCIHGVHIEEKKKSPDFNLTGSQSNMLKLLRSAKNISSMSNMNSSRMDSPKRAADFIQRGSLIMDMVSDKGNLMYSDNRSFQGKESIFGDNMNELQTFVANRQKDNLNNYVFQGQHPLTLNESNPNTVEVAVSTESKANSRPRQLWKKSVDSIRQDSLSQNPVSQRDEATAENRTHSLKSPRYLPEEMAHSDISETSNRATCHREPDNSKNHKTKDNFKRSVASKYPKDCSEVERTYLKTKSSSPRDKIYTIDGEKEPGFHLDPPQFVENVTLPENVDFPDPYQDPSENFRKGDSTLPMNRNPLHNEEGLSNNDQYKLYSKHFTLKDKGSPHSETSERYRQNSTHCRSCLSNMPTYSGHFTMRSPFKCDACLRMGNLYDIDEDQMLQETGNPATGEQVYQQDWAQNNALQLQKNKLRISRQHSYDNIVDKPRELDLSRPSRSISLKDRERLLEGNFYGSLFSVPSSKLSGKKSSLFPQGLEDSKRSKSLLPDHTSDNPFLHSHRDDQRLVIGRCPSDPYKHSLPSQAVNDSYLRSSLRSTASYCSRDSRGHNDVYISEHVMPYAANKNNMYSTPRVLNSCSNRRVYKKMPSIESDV

pIC50, pKi: −log10 of the molar value. The source made the active and inactive calls. The calls are words filed in the database; no cut-off is given here.

T2 sequence (O42275 whole entry): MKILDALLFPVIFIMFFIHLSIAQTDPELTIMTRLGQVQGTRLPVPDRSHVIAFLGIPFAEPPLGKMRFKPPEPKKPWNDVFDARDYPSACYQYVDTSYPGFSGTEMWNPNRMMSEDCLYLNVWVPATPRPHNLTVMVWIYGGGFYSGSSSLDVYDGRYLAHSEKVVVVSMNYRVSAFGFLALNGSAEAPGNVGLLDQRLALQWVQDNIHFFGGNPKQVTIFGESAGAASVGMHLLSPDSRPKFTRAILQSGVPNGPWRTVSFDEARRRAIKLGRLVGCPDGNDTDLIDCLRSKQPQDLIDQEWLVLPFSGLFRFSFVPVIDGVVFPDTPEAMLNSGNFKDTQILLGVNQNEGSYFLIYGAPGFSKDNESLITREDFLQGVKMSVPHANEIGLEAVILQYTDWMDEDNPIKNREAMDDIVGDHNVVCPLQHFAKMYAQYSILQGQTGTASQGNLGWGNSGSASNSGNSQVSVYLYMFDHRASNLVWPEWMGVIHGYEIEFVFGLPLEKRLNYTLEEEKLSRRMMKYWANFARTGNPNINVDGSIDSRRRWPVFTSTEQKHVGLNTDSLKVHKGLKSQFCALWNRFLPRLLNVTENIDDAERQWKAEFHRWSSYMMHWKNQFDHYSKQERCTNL
T1 sequence (P22303 whole entry): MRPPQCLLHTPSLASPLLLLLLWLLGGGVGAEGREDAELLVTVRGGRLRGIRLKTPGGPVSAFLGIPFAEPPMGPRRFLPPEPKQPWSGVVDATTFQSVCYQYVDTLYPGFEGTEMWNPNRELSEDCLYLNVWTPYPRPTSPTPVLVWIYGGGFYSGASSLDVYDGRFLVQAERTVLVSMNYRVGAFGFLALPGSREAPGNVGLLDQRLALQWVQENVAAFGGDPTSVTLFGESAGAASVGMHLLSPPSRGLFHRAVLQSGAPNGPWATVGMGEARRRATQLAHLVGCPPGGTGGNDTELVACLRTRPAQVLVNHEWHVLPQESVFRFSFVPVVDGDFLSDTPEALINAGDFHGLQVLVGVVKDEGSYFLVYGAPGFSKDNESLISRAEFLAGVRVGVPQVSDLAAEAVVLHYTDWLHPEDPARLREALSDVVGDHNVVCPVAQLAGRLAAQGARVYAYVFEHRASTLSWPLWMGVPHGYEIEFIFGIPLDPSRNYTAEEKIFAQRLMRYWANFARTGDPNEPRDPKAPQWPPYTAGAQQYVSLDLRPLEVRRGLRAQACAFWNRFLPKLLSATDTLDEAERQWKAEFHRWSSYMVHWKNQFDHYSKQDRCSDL
Cholinesterase, sequence (P81908 whole entry): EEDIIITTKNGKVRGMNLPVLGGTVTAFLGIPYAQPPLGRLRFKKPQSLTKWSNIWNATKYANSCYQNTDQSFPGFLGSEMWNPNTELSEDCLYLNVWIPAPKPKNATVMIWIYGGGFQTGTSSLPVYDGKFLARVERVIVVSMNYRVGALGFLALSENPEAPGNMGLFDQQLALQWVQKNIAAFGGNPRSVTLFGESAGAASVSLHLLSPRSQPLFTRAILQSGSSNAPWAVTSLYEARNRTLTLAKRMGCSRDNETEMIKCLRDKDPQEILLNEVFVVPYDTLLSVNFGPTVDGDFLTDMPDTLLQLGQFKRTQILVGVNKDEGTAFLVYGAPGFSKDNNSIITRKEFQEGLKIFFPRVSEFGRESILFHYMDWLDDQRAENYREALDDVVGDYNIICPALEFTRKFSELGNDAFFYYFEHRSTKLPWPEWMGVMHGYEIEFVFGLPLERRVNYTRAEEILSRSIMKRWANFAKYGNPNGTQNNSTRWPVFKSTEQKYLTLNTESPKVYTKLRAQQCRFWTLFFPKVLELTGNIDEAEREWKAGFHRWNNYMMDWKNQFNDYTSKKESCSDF
Description for in vitro: Permeability of the compound at 25 ug/ml incubated or 18 hrs by PAMPA-BBB assay

Broadly, the pIC50 is the IC50 on a negative log10 scale, so that one unit is a factor of ten. A word on the Papp: it is the rate of passage across a membrane or cell layer, normalised by area and donor concentration. A lower Papp goes with poor permeation. On to `CC12CC3CC(C)(C1)CC(N)(C3)C2` [MEMANTINE], for which the pIC50 in [1] was 5.47; in data set [2], 6.23; in data set [3] it was 5.46; against Acetylcholinesterase [4], 6.11; in [5], 6.65; in [7], 6.50. Further, the negative logarithm of the IC50 (pIC50) in data set [8] is 5.90; in [9] it was 6.44; in [10] it was 6.11. In the data set “in vitro”, the Papp at 18 h, 25 ug/ml amounted to 6.84 ×10⁻⁶ cm/s. Besides, the Activity entry with HEK-293T [6] was “Toxic”.
For orientation: pKi means −log10 of the Ki, conventionally taken in molar units. A low value points to a large Ki. For `Brc1ccc(Cn2cc(CNC34CC5CC(CC(C5)C3)C4)nn2)cc1`, the inhibition result in data set [11], in data set [16] and in [24] was “Dose-Dependent Effect” each time. The pKi on Acetylcholinesterase [12] was 7.59. Also, the inhibition result in [13] is “Active”. Besides, the pIC50 in data set [1] is 4.44; in data set [2], 4.00; in [3], 4.32; in data set [5] it was 4.04; in [7], 4.35; at Acetylcholinesterase [20], 7.07. Moreover, the pIC50 on Acetylcholinesterase [23] is 7.04; in data set [8] it was 5.52; in [9] it was 3.95; in [10], 5.41; at Cholinesterase, 5.59. For the same compound, the results for the Activity result in the data set on HEK-293T [14], with HEK-293T [19] and in the data set on Rattus norvegicus [22] were “Toxic”, “Non-Toxic” and “Dose-Dependent Effect”, respectively. Also, the outcome with SH-SY5Y, in the data set on Rattus norvegicus [15], with Rattus norvegicus [17] and in the data set on Rattus norvegicus [18] was Active. The Papp at 18 h, 25 ug/ml in “in vitro” was 8.75 ×10⁻⁶ cm/s. Moreover, the Ratio IC50 in data set [21] was 29.6.
`CC(C(O)c1ccc(O)cc1)N1CCC(Cc2ccccc2)CC1` (configuration not stated) [IFENPRODIL] gave a pIC50 in [25] of 3.84.
